Assay: In vivo pharmacokinetics of oral formulations in healthy human subjects
Experimental: The three dose levels included 25 mg (representative formulation listed in Table 1.2), 200 mg (representative formulation listed in Table 1.3) and 400 mg of the drug compound.

## Cc1ccc(C2O[C@H](CO)[C@@H](O)[C@H](O)[C@H]2O)cc1Cc1ccc(-c2ccc(F)cc2)s1 (stereo partly drawn) [compound of Formula (I-S)]
All doses (25 mg, 200 mg and 400 mg), fed or fasting
  mean AUCinf values across formulations and food conditions: comparable
Human subjects, fed versus fasted
  effect of food on the extent of bioavailability: no significant effect
human, plasma, oral, all treatment regimens regardless of formulation and food intake, read-out: mean t1/2
  half-life: 8 to 12 h

Reference: patent publication US10617668B2, “Pharmaceutical formulations” (Janssen Pharmaceutica NV, priority 2010, dated 2020)
